Assay [1] relates to Cells containing hepatitis C virus (HCV) replicon. Nature of the assay: HCV replicon cell assay. The class given is cell-based. As to the method:
HCV Replicon Cell Assay Protocol:
Cells containing hepatitis C virus (HCV) replicon were maintained in DMEM containing 10% fetal bovine serum (FBS), 0.25 mg per ml of G418, with appropriate supplements (media A).
On day 1, replicon cell monolayer was treated with a trypsin: EDTA mixture, removed, and then media A was diluted into a final concentration of 100,000 cells per ml wit. 10,000 cells in 100 ul were plated into each well of a 96-well tissue culture plate, and cultured overnight in a tissue culture incubator at 37° C.
On day 2, compounds (in 100% DMSO) were serially diluted into DMEM containing 2% FBS, 0.5% DMSO, with appropriate supplements (media B). The final concentration of DMSO was maintained at 0.5% throughout the dilution series.
Media on the replicon cell monolayer was removed, and then media B containing various concentrations of compounds was added. Media B without any compound was added to other wells as no compound controls.
Cells were incubated with compound or 0.5% DMSO in media B for 48 hours in a tissue culture incubator at 37° C. At the end of the 48-hour incubation, the media was removed, and the replicon cell monolayer was washed once with PBS and stored at −80° C. prior to RNA extraction.
Culture plates with treated replicon cell monolayers were thawed, and a fixed amount of another RNA virus, such as Bovine Viral Diarrhea Virus (BVDV) was added to cells in each well. RNA extraction reagents (such as reagents from RNeasy kits) were added to the cells immediately to avoid degradation of RNA. Total RNA was extracted according the instruction of manufacturer with modification to improve extraction efficiency and consistency. Finally, total cellular RNA, including HCV replicon RNA, was eluted and stored at −80° C. until further processing.
A Taqman real-time RT-PCR quantification assay was set up with two sets of specific primers and probe. One was for HCV and the other was for BVDV. Total RNA extractants from treated HCV replicon cells was added to the PCR reactions for quantification of both HCV and BVDV RNA in the same PCR well. Experimental failure was flagged and rejected based on the level of BVDV RNA in each well. The level of HCV RNA in each well was calculated according to a standard curve run in the same PCR plate. The percentage of inhibition or decrease of HCV RNA level due to compound treatment was calculated using the DMSO or no compound control as 0% of inhibition. The IC50 (concentration at which 50% inhibition of HCV RNA level is observed) was calculated from the titration curve of any given compound.
For orientation: In antiviral work, replicon cells carry a viral genome segment that copies itself.

The target of another assay is T1, HCV NS3-NS4A protease (Hepatitis C virus genotype 1a, UniProt P27958).
T1 construct: The buffer, KK4A, DTT, and tNS3 were combined
T1 sequence (P27958 1027-1208): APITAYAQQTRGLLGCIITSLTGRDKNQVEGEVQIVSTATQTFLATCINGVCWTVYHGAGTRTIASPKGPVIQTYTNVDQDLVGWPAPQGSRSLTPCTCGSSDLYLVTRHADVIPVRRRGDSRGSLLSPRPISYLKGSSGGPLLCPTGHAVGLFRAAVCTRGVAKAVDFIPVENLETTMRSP
The assay is described as follows: HCV enzyme assay (HPLC microbore separation of 5AB substrate and products). The class given is biochemical. As to the method: HCV Enzyme Assay Protocol
HPLC Microbore Method for Separation of 5AB Substrate and Products
• NH2-Glu-Asp-Val-Val-(alpha)Abu-Cys-Ser-Met-Ser-Tyr-COOH
A stock solution of 20 mM 5AB (or concentration of your choice) was made in DMSO w/0.2M DTT. This was stored in aliquots at −20 C.
Buffer: 50 mM HEPES, pH 7.8; 20% glycerol; 100 mM NaCl
Total assay volume was 100 μL
The buffer, KK4A, DTT, and tNS3 were combined; distributed 78 μL each into wells of 96 well plate. This was incubated at 30 C for ˜5-10 min.
2.5 μL of appropriate concentration of test compound was dissolved in DMSO (DMSO only for control) and added to each well. This was incubated at room temperature for 15 min.
Incubated for 20 min at 30 C.
Terminated reaction by addition of 25 μL of 10% TFA
Transferred 120 μL aliquots to HPLC vials
Separated SMSY product from substrate and KK4A by the following method:
Microbore Separation Method:
Instrumentation: Agilent 1100
• Degasser G1322A • Binary pump G1312A • Autosampler G1313A • Column thermostated chamber G1316A • Diode array detector G1315A Column: • Phenomenex Jupiter; 5 micron C18; 300 angstroms; 150×2 mm; P/O 00F-4053-B0 • Column thermostat: 40 C • Injection volume: 100 μL • Solvent A=HPLC grade water+0.1% TFA • Solvent B=HPLC grade acetonitrile+0.1% TFA
• Stop time: 17 min • Post-run time: 10 min.

Where [2] appears, read: 50% inhibition of HCV RNA level, 48-hour incubation, Taqman real-time RT-PCR, read-out: IC50.

pIC50, pKi: −log10 of the molar value. Where two headings read alike, the source gives them in different places. Some results are limits rather than exact numbers.

These results are taken from US8426359B2, “Inhibitors of serine proteases, particularly HCV NS3-NS4A protease” (Vertex Pharmaceuticals Incorporated, priority 2003, dated 2013).

With `CCC[C@H](NC(=O)[C@@H]1CC2CCCCC2N1C(=O)[C@@H](NC(=O)[C@@H](NC(=O)C(=O)Nc1ccccc1)C1CCCCC1)C(C)(C)C)C(=O)C(=O)NC1CC1` (stereo partly drawn) [Compound 1], in assay [1] (48 h), the pIC50 (usually the IC50 on a negative log10 scale, so that one unit is a factor of ten) is 6.00 to 6.60. In addition, the negative logarithm of the Ki (pKi) (usually the negative decadic logarithm of the Ki, by convention in mol/L) on HCV NS3-NS4A protease (25 nM tNS3, 25 μM KK4A, 25 μM 5AB substrate, 20 min at 30 C, read-out: Ki) is 6.60 to 7.00.
`CCC[C@H](NC(=O)[C@@H]1C[C@@H]2CCCC[C@@H]2N1C(=O)[C@@H](NC(=O)[C@@H](NC(=O)C(=O)NCc1ccccc1)C1CCCCC1)C(C)(C)C)C(=O)C(=O)NC1CC1` [Compound 2]: the negative-log IC50 (pIC50) in assay [1] (setting [2]) is 6.00 to 6.60. Also, the pKi at HCV NS3-NS4A protease is 6.60 to 7.00.
Take `CCC[C@H](NC(=O)[C@@H]1C[C@@H]2CCCC[C@@H]2N1C(=O)[C@@H](NC(=O)[C@@H](NC(=O)C(=O)NCC1CCCCC1)C1CCCCC1)C(C)(C)C)C(=O)C(=O)NC1CC1` [Compound 3]: in assay [1] (setting [2]), the negative logarithm of the IC50 (pIC50) is 6.00 to 6.60. The same compound showed a pKi on HCV NS3-NS4A protease of 6.60 to 7.00.
As for `CCC[C@H](NC(=O)[C@@H]1C[C@@H]2CCCC[C@@H]2N1C(=O)[C@@H](NC(=O)[C@@H](NC(=O)C(=O)NC1CC1)C1CCCCC1)C(C)(C)C)C(=O)C(=O)NC1CC1` [Compound 4], the negative-log IC50 (pIC50) in assay [1] (setting [2]) is 6.00 to 6.60. This compound had a pKi at HCV NS3-NS4A protease of 6.60 to 7.00.
Consider `CCC[C@H](NC(=O)[C@@H]1C[C@@H]2CCCC[C@@H]2N1C(=O)[C@@H](NC(=O)[C@@H](NC(=O)C(=O)NC(C)C)C1CCCCC1)C(C)(C)C)C(=O)C(=O)NC1CC1` [Compound 5], for which the pIC50 in assay [1] (setting [2]) was 6.00 to 6.60. This compound had a pKi at HCV NS3-NS4A protease of 6.60 to 7.00.
Consider `CCC[C@H](NC(=O)[C@@H]1C[C@@H]2CCCC[C@@H]2N1C(=O)[C@@H](NC(=O)[C@@H](NC(=O)C(=O)NCC(C)C)C1CCCCC1)C(C)(C)C)C(=O)C(=O)NC1CC1` [Compound 6], for which, in assay [1] (setting [2]), the pIC50 was 6.00 to 6.60. Besides, on HCV NS3-NS4A protease, the pKi is 6.60 to 7.00.
Turning to `CCC[C@H](NC(=O)[C@@H]1C[C@@H]2CCCC[C@@H]2N1C(=O)[C@@H](NC(=O)[C@@H](NC(=O)C(=O)Nc1cc(C)on1)C1CCCCC1)C(C)(C)C)C(=O)C(=O)NC1CC1` [Compound 7], the negative logarithm of the IC50 (pIC50) in assay [1] (setting [2]) is 6.00 to 6.60. Also, the pKi at HCV NS3-NS4A protease is 6.60 to 7.00.
For the compound `CCC[C@H](NC(=O)[C@@H]1C[C@@H]2CCCC[C@@H]2N1C(=O)[C@@H](NC(=O)[C@@H](NC(=O)C(=O)NC1CCCCC1)C1CCCCC1)C(C)(C)C)C(=O)C(=O)NC1CC1` [Compound 8], the negative logarithm of the IC50 (pIC50) in assay [1] (setting [2]) is 6.00 to 6.60. The same compound gave a pKi at HCV NS3-NS4A protease of 6.60 to 7.00.
In the case of `CCC[C@H](NC(=O)[C@@H]1C[C@@H]2CCCC[C@@H]2N1C(=O)[C@@H](NC(=O)[C@@H](NC(=O)C(=O)NC1CCCC1)C1CCCCC1)C(C)(C)C)C(=O)C(=O)NC1CC1` [Compound 9], in assay [1] (setting [2]), the pIC50 is 6.00 to 6.60. On HCV NS3-NS4A protease, this compound gave a pKi of 6.00 to 6.60.
As to `CCC[C@H](NC(=O)C1C[C@@H](Oc2ccc(Cl)cn2)CN1C(=O)[C@@H](NC(=O)[C@@H](NC(=O)C(=O)NC1CC1)C1CCCCC1)C(C)(C)C)C(=O)C(=O)NC1CC1` (stereo partly drawn) [Compound 10], in assay [1] (setting [2]), the pIC50 was > 7.00. The compound also had a pKi at HCV NS3-NS4A protease of 6.60 to 7.00.
As for `CCC[C@H](NC(=O)[C@@H]1C[C@@H](Oc2ccc(Cl)cn2)CN1C(=O)[C@@H](NC(=O)[C@@H](NC(=O)C(=O)NCc1ccccc1)C1CCCCC1)C(C)(C)C)C(=O)C(=O)NC1CC1` [Compound 11], the pIC50 in assay [1] (setting [2]) is > 7.00. Besides, on HCV NS3-NS4A protease, the pKi is 6.60 to 7.00.
Take `CCC[C@H](NC(=O)[C@@H]1C[C@@H](Oc2ccc(Cl)cn2)CN1C(=O)[C@@H](NC(=O)[C@@H](NC(=O)C(=O)NCC(C)C)C1CCCCC1)C(C)(C)C)C(=O)C(=O)NC1CC1` [Compound 12]: in assay [1] (setting [2]), the pIC50 is > 7.00. The compound further gave a pKi on HCV NS3-NS4A protease of 6.60 to 7.00.
